Data from patent US20230100173A1, “A TOPICAL COMPOSITION COMPRISING AN EXTRACT OF COMBINED HERBS […] ARILLUS FOR TLSP INHIBITION AND THE TREATMENT OR A[…] SKIN INFLAMMATORY DISEASE AND THE USE THEREOF” (ME[…]., LTD, priority 2020, published 2023).

Assays:
TSLP [1] = assay: Inhibition of TNF alpha-induced TSLP expression in HaCaT cells (RT-PCR); assay type: cell-based, human; settings: TNFα 50 ng/ml, extract 1 μg/ml, Dex 200 nM, mean
Description: (§1) In order to determine the anti-inflammatory activity of inventive extract, following inhibition test of cytokine expression using HaCaT cell was performed according to the procedure disclosed in the literature (Jeong et al., 2019, J. Invest. Dermatol., May; 139 (5): pp 1098-1109).
(§2) HaCaT cell (human epithelial keratinocyte cell, 300493, CLS) was inoculated into DMEM medium containing 10% Fetal bovine serum, 100 units/m1 of penicillin, 100n/m1 of streptomycin (D6429, Sigma-Aldrich Co. Ltd) and was incubated in the incubator (HERA cell 150i, Thermo Fisher Scientific Co. Ltd.) maintaining optimum humidity (85-95%) and 5% CO2 atmosphere.
(§3) For performing gene expression test, the incubated cells were transferred to 12 wells and 50 ng/ml of TNF alpha (RC214-12, Biobasic Co. Ltd) was treated therewith for 1 hour to induce inflammatory response.
(§4) 1 hour after inducing the inflammation, 1 μg/ml of inventive extract prepared in Examples was treated with identical medium and subjected to incubation for 1 hour. After the incubation, RNA (FATRR-001, Favorgen) was extracted from the cell and cDNA was synthesized from the RNA using by cDNA synthesis kit (RRO36A, TAKARA). […]

IL-1β = assay: Inhibition of TNF alpha-induced IL-1β expression in HaCaT cells (RT-PCR); assay type: cell-based, human; settings: TNFα 50 ng/ml, extract 1 μg/ml, Dex 200 nM, mean
Description: as §1, §2, §3, §4

[2] = test system: DNFB-induced skin dermatitis, BALB/C female mouse; assay: DNFB-induced atopic dermatitis in BALB/C mice, skin dermatitis severity score; assay type: in vivo; settings: 16th day, topical WIN-1001X 10 mg/ml, DEX 200 μM, DNFB+DIW 8.8
Description: To confirm the inhibitory effect of inventive extract on the atopic dermatitis, the animal model test using by mice, was performed according to the method disclosed in the reference (Li et al., Drug. Des. Devel. Ther., 2016, Feb. 19; 10:781-191).
(§5) 100 μL of 0.15% (w/v) DNFB (2,4-dinitrofluorobenzene, D1529, Sigma-Aldrich Co. Ltd.) was spread on […] of 6 weeks-old BALB/C female mouse (DBL Co., Ltd. Incheon, Korea) and after removing the central dorsal hair, 100 μL of 0.15% (w/v) DNFB (2,4-dinitrofluorobenzene, D1529, Sigma-Aldrich Co. Ltd.) was spread at every third day starting from at 7th day to 16th day to induce skin inflammation.
For the purpose of comparing with test group, the identical test excepting using acetone instead of DNFB and DIW instead of test sample with the above procedure was performed.

skin epidermal layer = assay type: in vivo, mouse; settings: DNFB BALB/C mice, 16th day, H&E; topical WIN-1001X 10 mg/ml, DEX 200 μM; acetone+DIW = 1, DNFB+DIW 7.06
Description: (§8) Ltd.) was spread at every third day starting from at 7th day to 16th day to induce skin inflammation. […] Additionally, the histological analysis on skin tissue of test animal has been performed. Specifically, the dorsal skin tissue occurring dermatitis was fixed on 4% (w/v) paraformaldehyde solution ([MUT], Sigma-Aldrich) in shaker maintaining 4° C. (CR300, […] ) at 16th day after the sample treatment and 12 hours after the fixation, the dehydrated and transparent tissue was embedded in paraffin, sliced (5 μm of width) to make tissue slices.

[3] = test system: mast cells infiltrated into inflamed lesion; assay type: in vivo, mouse; settings: DNFB BALB/C mice, 16th day, toluidine blue; topical WIN-1001X 10 mg/ml, DEX 200 μM; acetone+DIW = 1, DNFB+DIW 3.18
Description: as §8

IL-4 = IL-4 expression in dorsal skin of DNFB mice (RT-PCR); assay type: in vivo, mouse; settings: 16th day, WIN-1001X 10 mg/ml, DEX 200 μM, DNFB+DIW 11.4
Description: as §5
(§6) In order to determine the anti-inflammatory activity of inventive extract, following inhibition test of cytokine expression using test animal was performed according to the procedure disclosed in the literature (Li et al., Drug. Des. Devel. Ther., 2016, Feb. 19; 10:781-191).
(§7) At 16th day after the treatment of DNFB, RNA (FATRR-001, Favorgan) was extracted from the dorsal skin of mice prepared in Experimental Example 2 and cDNA was synthesized from the RNA using by cDNA synthesis kit (RRO36A, TAKARA). The polymerization reaction was performed using by the synthesized cDNA and Sybrgreen kit (RT500M, Enzynomics) and then Real-time-PCR was performed using by primers for various cytokines involved in skin inflammation (GADPH, TSLP, GM-CSF, IL-4, IL-10, IL-13, IL-31 and IL-33) as disclosed in Table 7.

IL-10 = IL-10 expression in dorsal skin of DNFB mice (RT-PCR); assay type: in vivo, mouse; settings: 16th day, WIN-1001X 10 mg/ml, DEX 200 μM, DNFB+DIW 19.3
Description: as §5, §6, §7

IL-13 = IL-13 expression in dorsal skin of DNFB mice (RT-PCR); assay type: in vivo, mouse; settings: 16th day, WIN-1001X 10 mg/ml, DEX 200 μM, DNFB+DIW 48.6
Description: as §5, §6, §7

IL-22 = IL-22 expression in dorsal skin of DNFB mice (RT-PCR); assay type: in vivo, mouse; settings: 16th day, WIN-1001X 10 mg/ml, DEX 200 μM, DNFB+DIW 29.2
IL-31 = IL-31 expression in dorsal skin of DNFB mice (RT-PCR); assay type: in vivo, mouse; settings: 16th day, WIN-1001X 10 mg/ml, DEX 200 μM, DNFB+DIW 3.93
Description: as §5, §6, §7

IL-33 = IL-33 expression in dorsal skin of DNFB mice (RT-PCR); assay type: in vivo, mouse; settings: 16th day, WIN-1001X 10 mg/ml, DEX 200 μM, DNFB+DIW 9.47
Description: as §5, §6, §7

TSLP [4] = assay: TSLP expression in dorsal skin of DNFB mice (RT-PCR); assay type: in vivo, mouse; settings: 16th day, WIN-1001X 10 mg/ml, DEX 200 μM, DNFB+DIW 7.51
Description: as §5
In order to determine the anti-inflammatory activity of inventive extract, following inhibition test of TSLP cytokine expression using test animal was performed according to the procedure disclosed in the literature (Li et al., Drug. Des. Devel. Ther., 2016, Feb. 19; 10:781-191).
as §7, with “TSLP” for “various”, “inflammation” for “inflammation (GADPH, TSLP, GM-CSF, IL-4, IL-10, IL-13, IL-31 and IL-33)”

C[C@@H]1C[C@H]2[C@@H]3CCC4=CC(=O)C=C[C@]4(C)[C@@]3(F)[C@@H](O)C[C@]2(C)[C@@]1(O)C(=O)CO [DEX, Dexamethasone]
TSLP expression (RT-PCR, relative to untreated = 1) (TSLP [1]): 52.49
IL-1β expression (RT-PCR, relative to untreated = 1) (IL-1β): 1.081
Improving effect on skin dermatitis (severity score, total score 12) [2]: 2.2
relative area of epidermis (skin epidermal layer): 1.638 fold
relative number of mast cells [3]: 0.8548 fold
IL-4 expression (RT-PCR, relative to acetone+DIW = 1) (IL-4): 4.798
IL-10 expression (RT-PCR, relative to acetone+DIW = 1) (IL-10): 20.44
IL-13 expression (RT-PCR, relative to acetone+DIW = 1) (IL-13): 12.56
IL-22 expression (RT-PCR, relative to acetone+DIW = 1) (IL-22): 13.08
IL-31 expression (RT-PCR, relative to acetone+DIW = 1) (IL-31): 1.001
IL-33 expression (RT-PCR, relative to acetone+DIW = 1) (IL-33): 0.7365
TSLP expression (RT-PCR, relative to acetone+DIW = 1) (TSLP [4]): 1.311
